Results published in patent publication US10202372B2, “Trisubstituted pyrido[2,3-D]pyrimidines, methods for preparing same and therapeutic uses thereof” (CENTRE NATIONAL DE LA RECHERCHE SCIENTIFIQUE (C.N.R.S), priority 2012, dated 2019).

Columns and labels:
PC3 = assay: Toxicity test on cells, PC3; format: cell-based; conditions: Homo sapiens, PC-3; 48 hours of treatment, Hoechst nuclei staining
Protocol: (§1) The compounds according to the invention were also tested on the cell lines HuH7, CaCo-2, HCT116, PC3, NCl, HacaT and Fibroblasts.
(§2) Operating Procedure: The cells were cultivated according to the ECACC recommendations. The toxicity test of the compounds on these cells was conducted as follows: 4×10^3 cells/well were sown in 96 wells. 24 hours after sowing the cells, the cells were exposed to increased concentrations of the compounds (0.1 μM-0.3 μM-0.9 μM-2.7 μM-8.3 μM-25 μM). After 48 hours of treatment, the cells were washed in PBS and bound in a cold ethanol/acetic acid (90/5) mixture for 20 minutes. Next, the nuclei were coloured with […] (Sigma). The acquisition of images and the analysis was carried out by means of a reader Cellomics ArrayScan VTI/HCS (Thermo Scientific).

HUH7 = assay: Toxicity test on cells, HUH7; format: cell-based; conditions: Homo sapiens, Huh-7; 48 hours of treatment, Hoechst nuclei staining
Protocol: as §1, §2

HCT116 = assay: Toxicity test on cells, HCT116; format: cell-based; conditions: Homo sapiens, HCT-116; 48 hours of treatment, Hoechst nuclei staining
Protocol: as §1, §2

NCl = assay: Toxicity test on cells, NCl; format: cell-based; conditions: 48 hours of treatment, Hoechst nuclei staining
Protocol: as §1, §2

Fibroblasts = assay: Toxicity test on cells, Fibroblasts; format: cell-based; conditions: Fibroblast; 48 hours of treatment, Hoechst nuclei staining
Protocol: as §1, §2

MDA = assay: Toxicity test on cells, MDA; format: cell-based; conditions: 48 hours of treatment, Hoechst nuclei staining
Protocol: [The procedure below names another cell line; the source lists this cell line under the same test.] as §1, §2

CaCo2 = assay: Toxicity test on cells, CaCo2; format: cell-based; conditions: Homo sapiens, Caco-2; 48 hours of treatment, Hoechst nuclei staining
Protocol: as §1, §2

mTOR = mTOR (Homo sapiens, UniProt P42345); assay: mTOR kinase activity, LANCE Ultra TR-FRET; format: biochemical; conditions: truncated mTOR protein, triplicate; read-out: Kinases IC50 mTOR
Protocol: The activity of the mTOR kinase was evaluated by using a purified truncated protein of the amino acids 1-1359 (reference: PV4753 from Invitrogen). The assay of the activity of the enzyme was carried out with the kit LANCE® Ultra which is an enzymatic test based on the detection of a phosphorylated peptide produced during the reaction, by using the fluorescence technique TR-FRET. It took place in a 384-well plate and was able to be divided into two phases: an enzymatic reaction phase and a phase for detecting the phosphorylated peptide.
During the enzymatic reaction phase, the following components were mixed in 10 μL of a same well: 5 μL of each dilution in series of inhibitors taken up in DMSO and then diluted to 1/25 in the reaction buffer (50 mM HEPES pH 7.5, 0.1% Tween-20, 1 mM EGTA, 10 mM MnCl2, 3 mM MgCl2 and 2 mM of DTT), 2.5 μL of a solution containing mTOR at the optimum concentration (concentration defined according to the optimization step described in the operating procedure of the kit) diluted in the same reaction buffer, and finally 2.5 μL of a solution containing 40 μM of ATP and 200 μM non-phosphorylated peptide diluted in the reaction buffer. For each inhibitor concentration, the reaction was conducted in three copies (triplicate). The reaction was then incubated for 120 min at room temperature without any stirring in darkness.
During the phase for detecting the phosphorylated peptide, 5 μL of an EDTA solution (32 mM) diluted in the dilution buffer (ref.: CR97-100 from Perkin Elmer) were injected into each well. After 5 min of incubation with stirring, 5 μL of a phosphorylated anti-peptide antibody solution labeled with europium (8 nM) and diluted in the same dilution buffer was added into each well. After 60 min of incubation at room temperature with stirring (40 rpm) in darkness, the 384-well plates were read in a plate reader Victor V configured for HTRF (Perkin Elmer). […] The inhibition curve was then plotted according to the fluorescence intensity value at 665 nm versus the inhibitor concentration.
The amount of inhibitor required for causing a 50% variation in the intensity of the signal corresponds to the IC50 value of the inhibitor.

PI3Kγ = PI3Kγ (Homo sapiens, UniProt P48736); assay: PI3Kγ kinase activity, Adapta TR-FRET ADP detection; format: biochemical; conditions: p110γ catalytic subunit; read-out: Kinases IC50 PI3Kγ
Protocol: (§3) The activity of the PI3Kα kinase was evaluated by using a purified heterodimer (reference: PV4788 from Invitrogen) consisting of the α catalytic p110 subunit (PIK3CA) and the α regulation p85 subunit (PIK3R1). The assay of the kinase with the kit Adapta™ (reference: PV5099 from Invitrogen) is an enzymatic test based on the detection of ADP, produced during the reaction, by the fluorescence technique TR-FRET. It took place in a 384-well plate and was able to be divided into two phases: an enzymatic reaction phase, and a phase for detecting the ADP level.
(§4) During the enzymatic reaction phase, the following components were mixed in 10 μL of a same well: 2.5 μL of each dilution in series of inhibitors taken up in DMSO and then diluted to 1/25 in the reaction buffer (250 mM HEPES pH 7.5, 500 mM NaCl, 0.15 CHAPS, 5 mM EGTA, 15 mM MgCl2 and 1 mM DTT, ref.: PV5101 from Invitrogen), 2.5 μL of a solution containing PI3K at the optimum concentration (concentration defined according to the optimization step described in the operating procedure of the kit) diluted in the same reaction buffer, and finally, 5 μL of a solution containing 20 μM ATP and 100 μM PIP2 diluted in the reaction buffer. For each inhibitor concentration, the reaction was conducted in three copies (triplicate). The reaction was then incubated for 60 min at room temperature without any stirring in darkness.
(§5) During the phase for detecting ADP, 5 μL of a detection solution containing an anti-ADP antibody labeled with europium (6 nM), a tracer of the Alexa Fluor® 647 type coupled with ADP (30 nM), and EDTA (30 mM, for stopping the kinase reaction) were diluted in the dilution buffer (reference: PV3574 from Invitrogen). After 30 min of incubation at room temperature with stirring (40 rpm) in darkness, the 384-well plates were read in a plate reader Victor V configured for HTRF (Perkin Elmer). The excitation was produced at 340 nm and emission was measured at 665 nm and 615 nm. The inhibition curve was then plotted according to the emission ratio at 665 nm/615 nm versus the inhibitor concentration.
(§6) In order to obtain a linear response of the signal, a titration curve ATP-ADP, corresponding to the conversion % of ATP into ADP, was achieved by varying both of these species while keeping [ADP]+[ATP]=10 μM. The emission ratio at 665 nm/615 nm resulting from this (Y) was plotted versus the conversion % of ATP into ADP (X). The data of this curve were formatted according to a model with three hyperbolic parameters from the following equation: Y=C+A*(1−(X/(B+X))).
(§7) The software package GraphPad™ Prism® thus allows calculation of the parameters A, B and C. A conversion % corresponds to an emission ratio 665 nm/615 nm, this percentage is calculated by using the following equation: Conversion %=B*(C+A−Ratio)/(Ratio−C)
(§8) The three parameters A, B and C having been defined by the preceding equation, the conversion % was therefore able to be plotted versus the inhibitor concentration. The amount of inhibitor required for causing a 50% variation in the % conversion of ATP into ADP corresponds to the IC50 value of the inhibitor.
(§9) The activity of the kinase PI3Kγγ (PV4786 from Invitrogen) was evaluated on the p110γγ catalytic subunit (PI3KCG) and that of the kinase PI3Kδδ on the purified heterodimer (PV5273) respectively consisting of the δδ catalytic p110 subunit (PIK3CD) and the α regulation p85 subunit (PIK3R1) by following the same procedure.

PI3Kδ = PI3Kδ (Homo sapiens, UniProt O00329); assay: PI3Kδ kinase activity, Adapta TR-FRET ADP detection; format: biochemical; conditions: purified p110δ/p85α heterodimer; read-out: Kinases IC50 PI3Kδ
Protocol: as §3, §4, §5, §6, §7, §8, §9

PI3Kα = PI3Kα (Homo sapiens, UniProt P42336); assay: PI3Kα kinase activity, Adapta TR-FRET ADP detection; format: biochemical; conditions: purified p110α/p85α heterodimer, triplicate; read-out: Kinases IC50 PI3Kα
Protocol: as §3, §4, §5, §6, §7, §8

HacaT = assay: Toxicity test on cells, HacaT; format: cell-based; conditions: Homo sapiens, 48 hours of treatment, Hoechst nuclei staining
Protocol: as §1, §2

Chain of mTOR (P42345 1360-2549): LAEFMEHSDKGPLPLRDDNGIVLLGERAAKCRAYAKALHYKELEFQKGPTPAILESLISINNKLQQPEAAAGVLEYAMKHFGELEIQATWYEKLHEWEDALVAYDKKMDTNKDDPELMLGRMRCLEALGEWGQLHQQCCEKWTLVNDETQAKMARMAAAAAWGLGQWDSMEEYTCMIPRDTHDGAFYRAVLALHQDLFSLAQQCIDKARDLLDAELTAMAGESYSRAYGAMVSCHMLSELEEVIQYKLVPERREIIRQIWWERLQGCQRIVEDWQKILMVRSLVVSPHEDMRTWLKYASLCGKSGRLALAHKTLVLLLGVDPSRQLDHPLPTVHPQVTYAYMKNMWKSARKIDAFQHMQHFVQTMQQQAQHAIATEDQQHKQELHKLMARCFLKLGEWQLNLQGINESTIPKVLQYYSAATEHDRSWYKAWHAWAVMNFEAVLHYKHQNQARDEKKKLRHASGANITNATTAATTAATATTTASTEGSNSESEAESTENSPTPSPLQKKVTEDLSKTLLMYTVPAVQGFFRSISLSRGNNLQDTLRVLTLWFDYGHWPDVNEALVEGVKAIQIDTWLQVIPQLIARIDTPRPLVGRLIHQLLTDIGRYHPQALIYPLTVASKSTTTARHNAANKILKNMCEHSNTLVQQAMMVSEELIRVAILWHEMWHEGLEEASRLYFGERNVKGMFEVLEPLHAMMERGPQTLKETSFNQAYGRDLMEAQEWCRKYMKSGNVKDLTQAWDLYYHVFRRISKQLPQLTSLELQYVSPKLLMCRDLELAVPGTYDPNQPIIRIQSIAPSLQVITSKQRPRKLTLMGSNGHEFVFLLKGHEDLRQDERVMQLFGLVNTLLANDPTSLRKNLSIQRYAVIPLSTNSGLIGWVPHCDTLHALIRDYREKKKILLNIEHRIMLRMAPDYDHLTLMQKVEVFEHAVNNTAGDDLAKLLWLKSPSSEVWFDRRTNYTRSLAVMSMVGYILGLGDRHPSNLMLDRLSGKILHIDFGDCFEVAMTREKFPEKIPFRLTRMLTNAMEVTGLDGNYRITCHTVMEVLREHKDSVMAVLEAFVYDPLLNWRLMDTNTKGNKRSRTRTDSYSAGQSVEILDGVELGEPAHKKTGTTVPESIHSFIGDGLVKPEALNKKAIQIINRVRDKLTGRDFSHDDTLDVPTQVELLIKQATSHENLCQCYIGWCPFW
Chain of PI3Kα (P42336 whole entry): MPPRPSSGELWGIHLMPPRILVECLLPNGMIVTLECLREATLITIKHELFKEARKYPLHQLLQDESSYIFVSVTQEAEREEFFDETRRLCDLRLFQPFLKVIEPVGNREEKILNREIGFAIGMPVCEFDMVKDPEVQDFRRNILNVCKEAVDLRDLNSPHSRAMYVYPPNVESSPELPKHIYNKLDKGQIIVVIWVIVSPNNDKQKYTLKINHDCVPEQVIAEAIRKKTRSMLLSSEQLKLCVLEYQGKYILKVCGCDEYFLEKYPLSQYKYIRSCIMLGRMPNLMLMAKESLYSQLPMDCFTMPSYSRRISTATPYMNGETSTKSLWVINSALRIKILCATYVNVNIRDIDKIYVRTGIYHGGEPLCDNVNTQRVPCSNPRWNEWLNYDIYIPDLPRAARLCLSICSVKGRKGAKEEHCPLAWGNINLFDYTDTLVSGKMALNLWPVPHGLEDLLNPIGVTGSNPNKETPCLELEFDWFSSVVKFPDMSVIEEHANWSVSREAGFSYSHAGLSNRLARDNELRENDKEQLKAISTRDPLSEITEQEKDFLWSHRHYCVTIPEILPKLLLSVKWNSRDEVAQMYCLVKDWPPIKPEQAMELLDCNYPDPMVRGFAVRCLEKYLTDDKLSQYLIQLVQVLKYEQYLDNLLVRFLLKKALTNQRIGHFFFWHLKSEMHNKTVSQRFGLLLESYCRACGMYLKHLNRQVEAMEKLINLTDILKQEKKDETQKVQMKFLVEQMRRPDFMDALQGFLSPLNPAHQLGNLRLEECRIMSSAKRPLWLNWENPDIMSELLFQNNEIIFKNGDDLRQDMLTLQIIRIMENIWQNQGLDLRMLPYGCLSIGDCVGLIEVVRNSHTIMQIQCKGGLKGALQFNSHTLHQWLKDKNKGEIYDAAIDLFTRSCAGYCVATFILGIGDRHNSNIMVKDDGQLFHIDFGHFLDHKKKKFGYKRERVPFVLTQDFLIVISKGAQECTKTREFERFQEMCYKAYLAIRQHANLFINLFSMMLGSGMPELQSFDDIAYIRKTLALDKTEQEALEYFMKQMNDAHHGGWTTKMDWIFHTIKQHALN
Chain of PI3Kα (P27986 whole entry partner): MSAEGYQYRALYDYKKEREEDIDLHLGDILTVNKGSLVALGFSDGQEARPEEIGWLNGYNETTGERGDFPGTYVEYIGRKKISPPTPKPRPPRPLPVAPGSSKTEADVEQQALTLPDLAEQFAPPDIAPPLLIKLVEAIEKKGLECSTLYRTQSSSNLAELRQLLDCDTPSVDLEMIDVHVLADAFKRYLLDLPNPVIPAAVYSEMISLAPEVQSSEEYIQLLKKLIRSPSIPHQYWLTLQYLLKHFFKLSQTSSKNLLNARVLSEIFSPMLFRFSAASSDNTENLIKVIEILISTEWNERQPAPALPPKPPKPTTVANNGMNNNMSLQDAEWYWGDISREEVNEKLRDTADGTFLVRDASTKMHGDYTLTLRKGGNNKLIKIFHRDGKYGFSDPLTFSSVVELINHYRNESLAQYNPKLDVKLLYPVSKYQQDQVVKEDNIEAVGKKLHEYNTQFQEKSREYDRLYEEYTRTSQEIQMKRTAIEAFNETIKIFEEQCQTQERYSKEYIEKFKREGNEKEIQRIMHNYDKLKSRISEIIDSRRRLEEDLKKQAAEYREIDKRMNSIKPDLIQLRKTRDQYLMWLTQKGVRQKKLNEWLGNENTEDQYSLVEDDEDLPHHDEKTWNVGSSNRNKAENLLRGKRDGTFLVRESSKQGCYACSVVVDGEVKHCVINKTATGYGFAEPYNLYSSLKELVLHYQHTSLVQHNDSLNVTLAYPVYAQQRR
Chain of PI3Kγ (P48736 whole entry): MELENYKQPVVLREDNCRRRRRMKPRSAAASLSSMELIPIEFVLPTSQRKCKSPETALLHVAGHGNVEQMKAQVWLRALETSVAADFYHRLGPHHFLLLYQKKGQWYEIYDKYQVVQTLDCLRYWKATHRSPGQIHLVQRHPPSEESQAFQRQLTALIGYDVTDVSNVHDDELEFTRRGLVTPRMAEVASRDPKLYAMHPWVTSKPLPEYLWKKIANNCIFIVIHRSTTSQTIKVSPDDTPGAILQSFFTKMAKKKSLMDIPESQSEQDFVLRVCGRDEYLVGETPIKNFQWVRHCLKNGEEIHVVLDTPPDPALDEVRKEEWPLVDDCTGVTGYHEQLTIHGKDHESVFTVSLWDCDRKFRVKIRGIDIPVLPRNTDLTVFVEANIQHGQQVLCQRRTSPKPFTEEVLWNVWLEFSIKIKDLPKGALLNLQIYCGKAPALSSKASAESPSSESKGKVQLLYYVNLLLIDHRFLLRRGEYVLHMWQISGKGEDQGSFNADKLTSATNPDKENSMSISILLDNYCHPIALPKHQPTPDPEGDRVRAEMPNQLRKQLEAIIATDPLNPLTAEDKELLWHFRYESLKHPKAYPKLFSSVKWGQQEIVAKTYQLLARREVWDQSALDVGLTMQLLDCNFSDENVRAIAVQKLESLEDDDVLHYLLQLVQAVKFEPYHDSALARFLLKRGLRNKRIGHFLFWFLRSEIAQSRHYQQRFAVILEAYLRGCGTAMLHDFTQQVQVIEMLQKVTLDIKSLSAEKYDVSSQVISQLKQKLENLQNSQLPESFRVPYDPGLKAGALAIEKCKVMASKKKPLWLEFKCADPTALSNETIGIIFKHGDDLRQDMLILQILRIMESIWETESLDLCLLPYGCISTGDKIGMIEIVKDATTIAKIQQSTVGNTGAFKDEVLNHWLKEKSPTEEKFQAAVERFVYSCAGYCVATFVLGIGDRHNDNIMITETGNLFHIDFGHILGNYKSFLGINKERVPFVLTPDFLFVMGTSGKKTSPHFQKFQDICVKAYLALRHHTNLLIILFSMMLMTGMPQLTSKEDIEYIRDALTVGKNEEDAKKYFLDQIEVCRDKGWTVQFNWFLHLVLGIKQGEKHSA

SMILES | melting point | IC50 (mTOR) | IC50 (PI3Kγ) | IC50 (PI3Kδ) | IC50 (PI3Kα) | IC50 (PC3) | IC50 (HUH7) | IC50 (HCT116) | IC50 (NCl) | IC50 (Fibroblasts) | IC50 (MDA) | IC50 (CaCo2) | IC50 (HacaT)
Oc1ccccc1-c1nc(N2CCOCC2)c2ncc(Cl)cc2n1 [Compound 5, 2-(7-Chloro-4-morpholinopyrido[3,2-d]pyrimidin-2-yl)phenol] | 212 °C |  |  |  |  | > 25 µM | > 25 µM | > 25 µM | > 25 µM | > 25 µM | > 25 µM | > 25 µM | 
Oc1ccc(-c2nc(N3CCOCC3)c3ncc(Cl)cc3n2)cc1 [Compound 7, 4-(7-Chloro-4-morpholinopyrido[3,2-d]pyrimidin-2-yl)phenol] | 253 to 254 °C | 0.184 µM | > 50 µM | 1.5 µM | 15.2 µM | 25 µM | 25 µM | > 25 µM | > 25 µM | > 25 µM | 25 µM | 25 µM | 
OCc1cccc(-c2nc(N3CCOCC3)c3ncc(Cl)cc3n2)c1 [Compound 8, (3-(7-Chloro-4-morpholinopyrido[3,2-d]pyrimidin-2-yl)phenyl)methanol] | 157 °C | > 50 µM | 0.431 µM | 0.016 µM | 0.032 µM | 20 µM | 25 µM | 5 µM | > 25 µM | 2 µM | 20 µM | 3 µM | 
COc1ccc(-c2nc(N3CCOCC3)c3ncc(Cl)cc3n2)cc1 [Compound 9, 4-(7-chloro-2-(4-methoxyphenyl)pyrido[3,2-d]pyrimidin-4-yl)morpholine] | 176 °C | > 50 µM | 3.1 µM | 0.363 µM | 6.2 µM | > 25 µM | > 25 µM | > 25 µM | > 25 µM | > 25 µM | > 25 µM | > 25 µM | > 25 µM

Now from value to compound, other results behind:

melting point | IC50 (mTOR) | IC50 (PI3Kγ) | IC50 (PI3Kδ) | IC50 (PI3Kα) | SMILES | IC50 (PC3) | IC50 (HUH7) | IC50 (HCT116) | IC50 (NCl) | IC50 (Fibroblasts) | IC50 (MDA) | IC50 (CaCo2) | IC50 (HacaT)
200 °C |  |  |  |  | O=[N+]([O-])c1ccc(-c2nc(N3CCOCC3)c3ncc(Cl)cc3n2)cc1 [Compound 10, 4-(7-chloro-2-(4-nitrophenyl)pyrido[3,2-d]pyrimidin-4-yl)morpholine] |  |  |  |  |  |  |  | 
> 260 °C | 0.37 µM | 1.7 µM | 2.1 µM | 1.6 µM | C=Cc1cnc2c(N3CCOCC3)nc(-c3ccc(O)cc3)nc2c1 [Compound 16, 4-(4-Morpholino-7-vinylpyrido[3,2-d]pyrimidin-2-yl)phenol] | > 25 µM | > 25 µM | > 25 µM | > 25 µM | > 25 µM | > 25 µM | > 25 µM | > 25 µM
> 260 °C |  |  |  | 0.023 µM | O=C(Nc1ccc(CO)cc1)Nc1ccc(-c2nc(N3CCOCC3)c3ncc(CN4CCOCC4)cc3n2)cc1 [Compound 78, 1-[4-(hydroxymethyl)phenyl]-3-{4-[4-(morpholin-4-yl)-7-(morpholin-4 ylmethyl)pyrido[3,2-d]pyrimidin-2-yl]phenyl}urea] | 2 µM | 2 µM | 1 µM | 3 µM | > 25 µM | 3 µM | 12 µM | 2 µM
200 to 202 °C |  |  |  |  | O=C(Nc1ccc(-c2nc(N3CCOCC3)c3ncc(CN4CCOCC4)cc3n2)cc1)Nc1cccc(CO)c1 [Compound 80, 1-[3-(hydroxymethyl)phenyl]-3-{4-[4-(morpholin-4-yl)-7-(morpholin-4-ylmethyl)pyrido[3,2-d]pyrimidin-2-yl]phenyl}urea] |  |  |  |  |  |  |  | 
